One data set deals with Target C. The data set is described as follows: HiBiT protein abundance assay, Target C (K562 HiBiT knock-in). Type of data set: cell-based, human. The following applies: HiBiT knock-in cells, 24 hours. The method, boiled down: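 K562 HiBiT knock-in cells (10000/well) in IMDM + 1% FBS were treated for 24 h at 37° C. with a 10-point 3-fold dilution series (top 10 μM final), with DMSO ≤0.25%. Unmodified K562 served as baseline. HiBiT lytic luminescence was normalized to controls, and IC50 was interpolated at 50% from a four-parameter fit.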

The next data set deals with HiBiT-tagged HTT protein. The data set is described as follows: HiBiT protein abundance assay, HTT (K562 HiBiT knock-in). The following applies: HiBiT knock-in cells, 24 hours. Type of data set: cell-based, human. Summed up: (§1)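 Endogenously HiBiT-tagged K562 knock-in lines treated 24 h at 37 °C with 10-point 3-fold dilutions (top 10 μM final, DMSO ≤0.25%) in IMDM+1% FBS. Lytic Nano-Glo luminescence normalized to DMSO and unmodified K562 controls; four-parameter fit gives 50%-abundance concentration (IC50).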

The next data set concerns K562 cells. The data set is described as follows: Cell viability, Cell Titer Glo 2.0 assay, K562. The following applies: 72 hours. (In general: Cellular ATP, detected with luciferase, serves as a proxy for viable cell number.)
The subject of the next data set is HiBiT-tagged MYB protein. The data set is described as follows: HiBiT protein abundance assay, MYB (K562 HiBiT knock-in). The following applies: HiBiT knock-in cells, 24 hours. The data set is classed as cell-based, human. Summed up:
as §1

Structures can show the parent of a compound that is named as a salt.

For orientation: IC50 means the concentration that inhibits the measured activity by half. A low value points to greater potency in that assay. For `CN[C@@H]1CCN(c2cnc3nc(-c4cc5cn(C)nc5c(C)c4O)nc(OC)c3c2)C1` [Compound 211, 5-{4-methoxy-6-[(3R)-3-(methylamino)pyrrolidin-1-yl]pyrido[2,3-d]pyrimidin-2-yl}-2,7-dimethylindazol-6-ol], the half-maximal inhibitory concentration (IC50) in the data set with Target C, in the data set with HiBiT-tagged HTT protein and with HiBiT-tagged MYB protein was under 100 nM in each case. Further, in the data set with K562 cells, the “Effect on Cell Viability, K562” value was “A (<100 nM)”.

With `CN[C@H]1CCN(c2cnc3nc(-c4cc5cn(C)nc5c(C)c4O)nc(OC)c3c2)C1` [Compound 212, 5-{4-methoxy-6-[(3S)-3-(methylamino)pyrrolidin-1-yl]pyrido[2,3-d]pyrimidin-2-yl}-2,7-dimethylindazol-6-ol], the IC50 with Target C is 100 to 1000 nM; in the data set on HiBiT-tagged HTT protein, under 100 nM; in the data set on HiBiT-tagged MYB protein it was under 100 nM. Also, the “Effect on Cell Viability, K562” value in the data set with K562 cells is recorded as “A (<100 nM)”.

Regarding `CNC1CCN(c2cnc3nc(-c4cc5cn(C)nc5cc4O)cc(Cl)c3c2)C1` (stereo not drawn) [Compound 213, 5-{4-chloro-6-[3-(methylamino)370pyrrolidine-1-yl]-1,8-naphthyridin-2-yl}-2-methylindazol-6-ol], the IC50 was 100 to 1000 nM in the data set with Target C, 100 to 1000 nM in the data set on HiBiT-tagged HTT protein and under 100 nM with HiBiT-tagged MYB protein. For the same compound, the “Effect on Cell Viability, K562” value in the data set on K562 cells is “B (100-1000 nM)”.

Take `Cc1c(O)c(-c2ncc3cc(N4C[C@@H](C)N[C@@H](C)C4)cnc3n2)cc2cn(C)nc12` [Compound 214]: the 50% inhibitory concentration (IC50) lay within 1000 to 10000 nM in the data set on Target C, 100 to 1000 nM with HiBiT-tagged HTT protein and 100 to 1000 nM in the data set on HiBiT-tagged MYB protein. The “Effect on Cell Viability, K562” value with K562 cells was “B (100-1000 nM)”.

For the compound `C[C@@H]1CN(c2cnc3nc(-c4cc(F)c5nn(C)cc5c4)cc(Cl)c3c2)C[C@H](C)N1` [Compound 215], the IC50 in the data set with Target C lay within 1000 to 10000 nM; in the data set on HiBiT-tagged HTT protein it was 1000 to 10000 nM; in the data set on HiBiT-tagged MYB protein, 100 to 1000 nM. In addition, the “Effect on Cell Viability, K562” value in the data set with K562 cells is reported as “B (100-1000 nM)”.

Take `Cn1cc2cc(-c3cc(Cl)c4cc(N5CCN6CCCC6C5)cnc4n3)cc(F)c2n1` (stereo not drawn) [Compound 216, 4-chloro-2-(7-fluoro-2-methylindazol-5-yl)-6-{hexahydro-1H-pyrrolo[1,2-a]pyrazin-2-yl}-1,8-naphthyridine trifluoroacetic acid]: the results for the IC50 with Target C, in the data set on HiBiT-tagged HTT protein and in the data set with HiBiT-tagged MYB protein were 1000 to 10000 nM, 1000 to 10000 nM and 100 to 1000 nM, respectively. Also, the “Effect on Cell Viability, K562” value with K562 cells was “B (100-1000 nM)”.

In the case of `Cc1c(O)c(-c2cc(-c3ccccn3)c3cc(N4C[C@@H](C)N[C@@H](C)C4)cnc3n2)cc2cn(C)nc12` [Compound 217, 5-{6-[(3R,5S)-3,5-dimethylpiperazin-1-yl]-4-(pyridin-2-yl)-1,8-naphthyridin-2-yl}-2,7-dimethylindazol-6-ol], the IC50 in the data set with Target C, with HiBiT-tagged HTT protein and in the data set with HiBiT-tagged MYB protein was 1000 to 10000 nM throughout. The “Effect on Cell Viability, K562” value with K562 cells was “C (1000-9999 nM)”.

Regarding `COc1nc(-c2cc3cn(C)nc3c(F)c2O)nc2ncc(N3C[C@@H](C)N[C@@H](C)C3)cc12` [Compound 218], the IC50 in the data set with Target C was 100 to 1000 nM; in the data set on HiBiT-tagged HTT protein, under 100 nM; in the data set on HiBiT-tagged MYB protein, under 100 nM. Further, in the data set on K562 cells, the “Effect on Cell Viability, K562” value is reported as “A (<100 nM)”.

On to `COc1nc(-c2cc3cn(C)nc3c(F)c2O)nc2ncc(N3CCC(N(C)C)CC3)cc12` [Compound 219, 5-{6-[4-(dimethylamino)piperidin-1-yl]-4-methoxypyrido[2,3-d]pyrimidin-2-yl}-7-fluoro-2-methylindazol-6-ol], for which the IC50 with Target C was 100 to 1000 nM; in the data set with HiBiT-tagged HTT protein, under 100 nM; in the data set with HiBiT-tagged MYB protein, under 100 nM. Also, in the data set on K562 cells, the “Effect on Cell Viability, K562” value is reported as “A (<100 nM)”.

On to `CN(C)[C@@H]1CCN(c2cnc3nc(-c4cc5cn(C)nc5c(F)c4O)cc(Cl)c3c2)C1` [Compound 220], for which the IC50 is 100 to 1000 nM in the data set on Target C, under 100 nM in the data set with HiBiT-tagged HTT protein and under 100 nM in the data set with HiBiT-tagged MYB protein. Further, the “Effect on Cell Viability, K562” value with K562 cells was “A (<100 nM)”.

With `CN(C)[C@H]1CCN(c2cnc3nc(-c4cc5cn(C)nc5c(F)c4O)cc(Cl)c3c2)C1` [Compound 221], the half-inhibitory concentration (IC50) was 100 to 1000 nM in the data set with Target C, under 100 nM with HiBiT-tagged HTT protein and under 100 nM with HiBiT-tagged MYB protein. The “Effect on Cell Viability, K562” value in the data set with K562 cells is reported as “A (<100 nM)”.

As to `C[C@H]1CN(c2cnc3nc(-c4cc5cn(C)nc5cc4O)cc(Cl)c3c2)C[C@H](C)N1` [Compound 242], the figures for the half-inhibitory concentration (IC50) with Target C, in the data set with HiBiT-tagged HTT protein and in the data set with HiBiT-tagged MYB protein were 100 to 1000 nM, 100 to 1000 nM and under 100 nM, respectively. Also, the “Effect on Cell Viability, K562” value in the data set with K562 cells was “A (<100 nM)”.

On to `C[C@@H]1CN(c2cnc3nc(-c4cc5cn(C)nc5cc4O)cc(Cl)c3c2)C[C@@H](C)N1` [Compound 243, 5-{4-chloro-6-[(3R,5R)-3,5-dimethylpiperazin-1-yl]-1,8-naphthyridin-2-yl}-2-methylindazol-6-ol hydrochloride], for which the IC50 in the data set with Target C lay in the range of 1000 to 10000 nM; in the data set on HiBiT-tagged HTT protein, 100 to 1000 nM; in the data set with HiBiT-tagged MYB protein it was 100 to 1000 nM. In addition, in the data set on K562 cells, the “Effect on Cell Viability, K562” value is recorded as “B (100-1000 nM)”.

Take `C[C@H]1CN(c2cnc3nc(-c4cc(F)c5nn(C)cc5c4)cc(Cl)c3c2)C[C@H](C)N1` [Compound 250]: the half-maximal inhibitory concentration (IC50) with Target C is 100 to 1000 nM; with HiBiT-tagged HTT protein, 100 to 1000 nM; with HiBiT-tagged MYB protein it was under 100 nM. Besides, the “Effect on Cell Viability, K562” value in the data set with K562 cells was “A (<100 nM)”.

On to `C[C@@H]1CN(c2cnc3nc(-c4cc(F)c5nn(C)cc5c4)cc(Cl)c3c2)C[C@@H](C)N1` [Compound 251], for which the values for the half-maximal inhibitory concentration (IC50) in the data set on Target C, with HiBiT-tagged HTT protein and in the data set with HiBiT-tagged MYB protein were 1000 to 10000 nM, 1000 to 10000 nM and 100 to 1000 nM, respectively. The “Effect on Cell Viability, K562” value in the data set with K562 cells was “B (100-1000 nM)”.

On to `Cc1c(O)c(-c2cc(-c3nnc[nH]3)c3cc(N4C[C@@H](C)N[C@@H](C)C4)cnc3n2)cc2cn(C)nc12` [Compound 261, 5-{6-[(3R,5S)-3,5-dimethylpiperazin-1-yl]-4-(4H-1,2,4-triazol-3-yl)-1,8-naphthyridin-2-yl}-2,7-dimethylindazol-6-ol], for which the figures for the IC50 in the data set with Target C, with HiBiT-tagged HTT protein and with HiBiT-tagged MYB protein were 1000 to 10000 nM, over 10000 nM and over 10000 nM, respectively. Also, the “Effect on Cell Viability, K562” value with K562 cells is reported as “D (greater than 10 μM)”.

On to `C[C@@H]1CN(c2cnc3nc(-c4cc5cn(C)nc5c(F)c4O)cc(C#N)c3c2)C[C@H](C)N1` [Compound 266, 6-[(3R,5S)-3,5-dimethylpiperazin-1-yl]-2-(7-fluoro-6-hydroxy-2-methylindazol-5-yl)-1,8-naphthyridine-4-carbonitrile hydrochloride], for which the IC50 in the data set with Target C was 1000 to 10000 nM; with HiBiT-tagged HTT protein, 100 to 1000 nM; in the data set on HiBiT-tagged MYB protein, under 100 nM. Moreover, in the data set on K562 cells, the “Effect on Cell Viability, K562” value was “A (<100 nM)”.

With `CN[C@@H]1CCN(c2cnc3nc(-c4cc5cn(C)nc5c(F)c4O)cc(Cl)c3c2)C1` [Compound 271], the IC50 with Target C, in the data set on HiBiT-tagged HTT protein and with HiBiT-tagged MYB protein was under 100 nM throughout. In addition, the “Effect on Cell Viability, K562” value in the data set with K562 cells is listed as “A (<100 nM)”.

Values taken from patent US20250326748A1, “COMPOUNDS AND METHODS FOR MODULATING SPLICING” (REMIX THERAPEUTICS INC., priority 2022, published 2025).
